Test [1] concerns C57BL/6 macrophages. Kind of test: Increasing CA-074-Me concentrations in LLOMe- or nigericin-challenged macrophages (PI exclusion, immunoblot). The class given is cell-based, mouse. (Immunoblotting shows a protein as a band on a membrane.)
Test [2] deals with C57BL/6 macrophages. The experiment in a line: 2D-DIGE of the cellular proteome of treated macrophages. The class given is cell-based, mouse. To be noted: LPS-primed; 2.5 mM LLOMe or nigericin for 90 minutes. The source says:
FIG. 10. 2D-DIGE gel of proteins isolated from untreated, nigericin- and LLOMe-treated macrophages. […] Protein lysates from control, nigericin, and LLOMe treated cells were isolated, and subsequently labeled with Cy2, Cy3 and Cy5, respectively, and separated on a 2D-DIGE gel.
Broad protein degradation mediated by LLOMe—As lysosomal proteases are highly promiscuous, it was reasoned that alum- and LL-mediated lysosomal release of proteolytic proteins may not just degrade Nlrp3-associated proteins, but may also trigger degradation of a broad range of cytosolic proteins, and might go beyond the degradation of inflammatory proteins reported here. To examine effects of LLOMe on the cellular proteome, macrophages were challenged with these compounds and generated lysates. 2D-DIGE was used to determine the extent of damage inflicted in macrophages exposed to the lysosome-disrupting agent, LLOMe. […] These findings further highlight the different impact of lysosome-destabilizing agents and pyroptosis inducers on the cellular proteome on a macro-level.

Another test relates to macrophages. The experiment in a line: Confocal microscopy of lysosome rupture (fluorescent dextran) and plasma membrane integrity. The format is cell-based, mouse. The procedure:
(§1) FIG. 5A-5C. Lysosome rupture precedes cell death by alum and LLOMe, but not pyroptosis inducers. (A) Confocal microscopy of lysosome rupture in macrophages treated with […], 2.5 mM LLOMe, or 15 μM nigericin in the absence or presence of 100 μM CA-074-Me. The cells were stained with Hoechst (blue), 20 MW FITC-Dextran (green), CellMask Orange (red), TO-PRO-3 (white). 2D-fluorescent intensity plots of FITC-dextran staining of representative cells derived from alum, LLOMe, and nigericin-treated cells. Flow cytometry analysis of LLOMe and LT-treated cells. BALB/c-derived macrophages were exposed to 2.5 mM LLOMe (B) or 500 ng/ml LT (C) and lysosome and membrane integrity were measured using LysoTracker and PI at different time points using flow cytometry.
Cathepsin-dependent lysosome rupture correlates with degradation of inflammatory proteins. […] Lysosome-disrupting agents caused caspase-1-independent cell death and broad protein degradation, while pyroptosis inducers caused caspase-1-dependent cell death and targeted IL-1β secretion. In order to directly investigate the role of lysosome rupture in Nlrp3 activation, two complementary methods were used to analyze lysosome integrity in macrophages challenged with both lysosome-destabilizing agents and potassium-efflux inducers. First, lysosomal integrity was measured by labeling vesicles in the endolysosomal pathway with fluorescent dextran. […] Intriguingly, no plasma membrane impairment (indicative of necrotic cell death) was detectable at this time point, but was observed only 6 hours post alum exposure (FIG. 5A). […] LLOMe destabilized lysosomes within 30 min, without impairment of plasma membranes. A loss of plasma membrane integrity was observed only after 60 min of LLOMe exposure, resulting in dextran release from these cells (FIG. 5A).

The subject of test [3] is pro-caspase-1, IL-18, and IL-1β. The format is cell-based, mouse.
In test [4] the test system is Nlrp3. The experiment in a line: IL-1β release into macrophage supernatants by ELISA. The format is cell-based, mouse. The note with it: for Effect of inhibitor on IL-1β secretion/release by all inducers tested: inducers alum, LLOMe, ATP, nigericin, 40 μM Boc-D-CMK or 100 μM CA-074-Me. The procedure:
(§2) FIG. 1A-1B. Alum and LLOMe are poor inducers of inflammasome-associated cytokines. […] Macrophages were then exposed to increasing concentrations of alum, LLOMe, ATP, or nigericin for 4 hours, or alum for 6 hours, in the presence or absence of the 40 μM Boc-D-CMK or 100 μM CA-074-Me. IL-1β release was assessed by ELISA (A), and cell death was determined by CytotoxOne LDH activity assay (B) from supernatants. All PI measurements were taken in triplicate from representative experiment. FIG. 2. Alum and LLOMe cause depletion of caspase-1 and NLR-associated cytokines. […] Lysates were probed for pro-caspase-1, IL-18, and IL-1β, and supernatants were probed for IL-1β by immunoblotting. Data is representative of 3 experiments.
FIG. 6A-6D. LPS triggers strong production of Th1 and Th2-associated IgG subtypes. IgG1 (A) and IgG2c (B) production in C57BL/6 mice 3 weeks after subcutaneous challenge with increasing amounts of LPS. (C) A combination of LPS and ATP triggers a strong IL-1β response in vitro and in vivo. Primary C57BL/6 macrophages were treated with 250 ng/ml LPS or PBS for 2 hours, followed by to 5 mM ATP in the presence or absence of the 40 μM Boc-D-CMK. IL-1β release was assessed by ELISA from supernatants. […] IL-1β production in the intraperitoneal lavage was determined by ELISA 30 min after ATP/PBS challenge.
Cell death assays and ELISAs. Necrosis was assessed by two methods: LDH release assays and propidium iodide (PI) exclusion. […] Fluorescence was measured using a Victor 2 plate reader from Perkin Elmer. LDH release was determined using the CytotoxOne kit from Promega, according to the manufacturer's instructions. […] The enzymatic assay was developed until signal was obtained from a positive control (300 μM hydrogen peroxide) and the reaction was stopped and measured on a Victor 2 plate reader. IL-1β Ready-Set-Go ELISA kits were purchased from eBioscience and were performed according to manufacturer's recommendations. IL-1β concentration was determined at 1:1 and 1:10 to ensure linear range. […] ELISAs were read on a Victor 2 plate reader from Perkin Elmer. […]
For orientation: In an ELISA, binding on a coated surface is turned into a signal by an enzyme label.

The test system of test [5] is bone marrow-derived murine macrophages. Kind of test: Necrotic cell death (LDH release / propidium iodide exclusion) in macrophages. The format is cell-based, mouse. As for the experimental part: as §2
Cell death assays and ELISAs. Necrosis was assessed by two methods: LDH release assays and propidium iodide (PI) exclusion. PI exclusion assays were performed in a 96-well flat-bottom plate using phenol-red-free DMEM and added to wells to a final concentration 30 μM 10-min before the specified time point. Fluorescence was measured using a Victor 2 plate reader from Perkin Elmer. LDH release was determined using the CytotoxOne kit from Promega, according to the manufacturer's instructions. […] The enzymatic assay was developed until signal was obtained from a positive control (300 μM hydrogen peroxide) and the reaction was stopped and measured on a Victor 2 plate reader. IL-1β Ready-Set-Go ELISA kits were purchased from eBioscience and were performed according to manufacturer's recommendations. IL-1β concentration was determined at 1:1 and 1:10 to ensure linear range. […] ELISAs were read on a Victor 2 plate reader from Perkin Elmer.
Lysosome-disrupting agents induce potent cell death but poor IL-1β release. […] Towards this, bone marrow-derived murine macrophages were challenged with both lysosome disrupting and pyroptosis-inducing agents and measured the amount of IL-1β and LDH released into the supernatant as complementary read-outs for Nlrp3 activation. […]
In general terms: LDH in the medium is a marker of cell lysis.

The subject of test [6] is BALB/c-derived macrophages. The experiment in a line: Flow cytometry of lysosome and membrane integrity (LysoTracker and PI). The format is cell-based, mouse. The procedure: as §1
To quantify these findings, lysosomal integrity was also analyzed by flow cytometry with the lysosomal pH-indicator LysoTracker and the vital stain propidium iodide (FIG. 5B and C). […] Intriguingly, protein degradation was concurrent with a loss of lysosome integrity 30 to 45 min after LLOMe exposure, and 4-6 hours after alum exposure (FIGS. 5A and 5B).

In test [7] the test system is Nlrp3. The experiment in a line: IL-1β and LDH in intraperitoneal lavage after i.p. challenge. The format is in vivo, mouse. To be noted: C57BL/6 mice, agent injected intraperitoneally (LPS: high concentrations), no ATP. As for the experimental part:
(§3) FIG. 6A-6D. LPS triggers strong production of Th1 and Th2-associated IgG subtypes. IgG1 (A) and IgG2c (B) production in C57BL/6 mice 3 weeks after subcutaneous challenge with increasing amounts of LPS. (C) A combination of LPS and ATP triggers a strong IL-1β response in vitro and in vivo. Primary C57BL/6 macrophages were treated with 250 ng/ml LPS or PBS for 2 hours, followed by to 5 mM ATP in the presence or absence of the 40 μM Boc-D-CMK. IL-1β release was assessed by ELISA from supernatants. (D) C57BL/6 mice were i.p. primed with 1 ug LPS or PBS for 2 hours, followed by i.p. challenge with 100 mM ATP or PBS. IL-1β production in the intraperitoneal lavage was determined by ELISA 30 min after ATP/PBS challenge.
FIG. 11. Similar in vitro and in vivo profiles of LLOMe and LPS/ATP-treated macrophages. C57BL/6 mice were i.p. primed with 1 μg LPS or PBS for 2 hours, followed by i.p. challenge with 500 μl of PBS containing 100 mM ATP, 2 mM LLOMe, or PBS only. IL-1β production and LDH activity was determined from the intraperitoneal lavage by ELISA 30 min after challenge.
Prototypical Nlrp3 inducers trigger a strong IL-1β in vivo and production of Th1-specific antibodies in vivo. While the substantial difference in Nlrp3-signalling in vitro is shown, it was further chosen to investigate the ability of lysosome-disrupting agents and pyroptosis inducer to activate Nlrp3 in vivo. […]

Another test concerns C57BL/6 mice. The experiment in a line: IgG1 and IgG2c production after immunization of mice. The format is in vivo, mouse. To be noted: immunized C57BL/6 mice; LPS 3 weeks after subcutaneous challenge. As for the experimental part:
as §3
It was sought to determine if this difference correlated with the observed difference in in vivo IL-1β activation. To test this hypothesis, C57BL/6 mice were immunized with alum, LLOMe, and LPS.

Setting [8] is: LPS-primed macrophages, 40 μM Boc-D-CMK, LDH assay.

Entries after “also recorded” stand apart in the source; their conditions may differ.

In the case of `CO[C@@H]1C[C@@H](C[C@H]2CC[C@H](C)[C@H]([C@@H](C)C(=O)O)O2)O[C@]2(O[C@](C)([C@H]3CC[C@@](C)([C@@H]4O[C@@H]([C@H]5O[C@@](O)(CO)[C@H](C)C[C@@H]5C)C[C@@H]4C)O3)C[C@H]2C)[C@@H]1C` [nigericin, Nigericin], the “Caspase-1 activation and Nlrp3 signaling: mature IL-1β in the supernatant” value with C57BL/6 macrophages [1] (LPS-primed C57BL/6 macrophages (FIG. 4B)) is “triggered caspase-1 activation and Nlrp3 signaling”. In addition, in the test on C57BL/6 macrophages [2], the “Degradation of cellular proteins (2D-DIGE)” value is recorded as “did not trigger any apparent degradation”. For the same compound, the “Timing of lysosome impairment relative to cell death” value in the test on macrophages (nigericin-treated cells (FIG. 5A)) is listed as “occurred only after cell death induction”. The “Processing of pro-caspase-1 (p45) into p10 and p20” value in test [3] is “minimal decrease of p45 with a notable increase of p20 or p10”.

On to Boc-D-CMK, for which the “Effect of inhibitor on IL-1β secretion/release by all inducers tested” value in the test on Nlrp3 [4] is “blocked”. Besides, in test [5] (setting [8]), the “Effect of inhibitor on alum and LLOMe-induced necrotic cell death” value is listed as “no impact”; the “Effect of inhibitor on cell death mediated by ATP and nigericin” value is given as “prevented”.

`CCCNC(=O)[C@H]1O[C@@H]1C(=O)N[C@H](C(=O)N1CCC[C@H]1C(=O)OC)[C@@H](C)CC` [CA-074-Me]: the “Effect of increasing inhibitor concentrations on cell death and drop in inflammatory proteins in LLOMe-treated macrophages” value in the test on C57BL/6 macrophages [1] (2.5 mM LLOMe, LPS-primed) is “blocked both, cell death and the drop in inflammatory proteins”. Also, the “Effect of inhibitor (at concentrations that blocked cell death) on release of processed IL-1β by Nlrp3 inducers” value in the test on C57BL/6 macrophages [1] (nigericin (and ATP), LPS-primed) was “prevented the release of processed IL-1β”. The “Effect of inhibitor on IL-1β secretion/release by all inducers tested” value in the test with Nlrp3 [4] is given as “blocked”. Besides, in the test on macrophages (100 μM CA-074-Me), the “Effect of inhibitor on lysosomal release of dextran from alum and LLOMe-treated macrophages” value is reported as “blocked”. Also, the “Effect of inhibitor on alum and LLOMe-mediated drop/degradation of proinflammatory proteins” value in [3] is “prevented the drop; also recorded: blocked”. For the same compound, the “Effect of inhibitor on necrotic cell death mediated by all agents/inducers tested” value in test [5] (alum, LLOMe, ATP, nigericin, 100 μM CA-074-Me) is “blocked necrosis”.

Consider `COC(=O)[C@H](CC(C)C)NC(=O)[C@@H](N)CC(C)C` [LLOMe, Leu-Leu-OMe], for which, in [6] (2.5 mM LLOMe, LysoTracker), the “Time to complete loss of lysosome integrity” value is at most 30 min. Besides, the “Time at which necrotic cell death was observed” value in [6] (2.5 mM LLOMe, PI) is 60 to 90 min. In addition, in test [6] (after LLOMe exposure), the “Time of protein degradation concurrent with loss of lysosome integrity” value is 30 to 45 min. For the same compound, in the test with C57BL/6 macrophages [2], the “Degradation of cellular proteins (2D-DIGE)” value was “broad degradation”. Further, in the test on Nlrp3 [7], the “IL-1β release in vivo” value is given as “poor release” and the “LDH release in vivo” value was “significant release”. In the test with C57BL/6 mice, the “IgG1 / Th2 response” value is reported as “polarized IgG1” and the “IgG2c response (Th1)” value is reported as “little induction”. Also, in the test with Nlrp3 [4] (LPS-primed (250 ng/ml, 2 hours) murine macrophages challenged with the inducer, ELISA of supernatants), the IL-1β release entry is listed as “only minimal”. In addition, in the test with macrophages (2.5 mM LLOMe), the “Time at which loss of plasma membrane integrity was observed” value is 60 min and the “Time to destabilized lysosomes, without impairment of plasma membranes” value was at most 30 min. Moreover, in [3], the “Cellular pro-caspase-1 levels” value is “significant depletion”; the “Cytosolic levels of IL-18 and IL-1β” value is recorded as “dramatic decrease”; the “Mature caspase-1 (p20) indicative of caspase-1 activation” value was “No mature caspase-1 (p20)”; the “Processing of pro-caspase-1 (p45) into p10 and p20” value is recorded as “substantial depletion of p45 without generating the p20 or p10 subunits”. In [3], the “Release of mature IL-1β into the supernatant (immunoblot)” value is reported as “no mature IL-1β”.

The record behind these values is US20140037685A1 (priority 2012, published 2014).
